# Source: patent US11672870B2, “Transduction” (The University of Nottingham, priority 2013, dated 2023)
# B1: heparinase III: HS-lyase enzyme (protein, UniProt Q59289 25-659, looked up)
# Heparin-sulfate lyase: QSSSITRKDFDHINLEYSGLEKVNKAVAAGNYDDAAKALLAYYREKSKAREPDFSNAEKPADIRQPIDKVTREMADKALVHQFQPHKGYGYFDYGKDINWQMWPVKDNEVRWQLHRVKWWQAMALVYHATGDEKYAREWVYQYSDWARKNPLGLSQDNDKFVWRPLEVSDRVQSLPPTFSLFVNSPAFTPAFLMEFLNSYHQQADYLSTHYAEQGNHRLFEAQRNLFAGVSFPEFKDSPRWRQTGISVLNTEIKKQVYADGMQFELSPIYHVAAIDIFLKAYGSAKRVNLEKEFPQSYVQTVENMIMALISISLPDYNTPMFGDSWITDKNFRMAQFASWARVFPANQAIKYFATDGKQGKAPNFLSKALSNAGFYTFRSGWDKNATVMVLKASPPGEFHAQPDNGTFELFIKGRNFTPDAGVFVYSGDEAIMKLRNWYRQTRIHSTLTLDNQNMVITKARQNKWETGNNLDVLTYTNPSYPNLDHQRSVLFINKKYFLVIDRAIGEATGNLGVHWQLKEDSNPVFDKTKNRVYTTYRDGNNLMIQSLNADRTSLNEEEGKVSYVYNKELKRPAFVFEKPKKNAGTQNFVSIVYPYDGQKAPEISIRENKGNDFEKGKLNLTLTINGKQQLVLVP
# Key:
# [1] = test system: NIH3t3: LSL-eGFP cells; test: Cre recombination assay; type: cell-based, mouse; conditions: drug pre-treatment and co-treatment (FIG. 17a-d)
# [2] = test system: NIH3t3 cells; test: Fluorescence delivery assay with membrane depletion, GAG competition, Heparinase, serum or Sodium Chlorate; type: cell-based, mouse; conditions: for effect on cell-surface binding and transduction of HETD proteins: free GAG competition (FIG. 3b); for inhibition of PTD-only protein transduction: free GAG competition (FIG. 12)
# Text: For flow cytometry, cells were trypsinized (unless otherwise stated), fixed in 4% (w/v) PFA, resuspended in PBS (pH7.5) and analysed on a MoFlo™ DP (DAKO) Flow Cytometer using a 488 nm […] laser. (50,000 cells; gated on live cells by forward/side scatter). Median fluorescence was used for statistical analyses with background from unlabelled/transduced cells subtracted and values taken as ratios to the experimental control. Data shown are three experiments of triplicate samples. For microscopy, cultures were rinsed twice with PBS and imaged with inverted fluorescence microscope (Nikon Eclipse TS100).
# For testing multiple cell lines we plated 2=10^5 cells/well (in 12-well plates) onto the surface relevant to the tested cell line, attached cells for 2 hours and transduced with recombinant proteins in cell-type specific growth media. After transduction cells were washed with PBS, trypsinized and fixed in 4% PFA for flow cytometry. For membrane localization, intracellular localisation or both we plated cells as above, but cultures pre-incubated in serum-free media for 1 hour before transduction. Membrane localization to assess cell interaction was achieved by a short transduction of 1 hour in serum-free media. Intracellular localization to assess transduction efficiency was achieved by a short transduction of 1 hour followed by 5 hour incubation in serum-free media only. Cell association (membrane and intracellular levels) were assessed by transducing cells for 6 hours in serum-free medium. For flow cytometry cells were trypsinized, washed and fixed in 4% PFA and for microscopy cells were imaged live after washing in PBS. For trypsin depletion of cell-surface proteins, cells were treated with trypsin/EDTA (Invitrogen) or EDTA-based cell dissociation solution (CDS) (Sigma) for 15 minutes at 37° C., followed by washes with PBS and 1× soybean trypsin inhibitor (10 mg/ml in PBS; Sigma). Cells were then treated with proteins for 1 hour at 37° C. in serum-free medium. For detergent depletion of cell membranes, cells were treated with PBS (pH7.5) containing 0.1% (v/v) Triton-X100 (Tx100) for 10 minutes at 37° C., followed by washes with PBS. Cells were then treated with proteins for 1 hour at 37° C. in serum-free medium. For GAG-treatment cells were pre-treated with GAGs in DMEM without serum before transduction and were included in the transduction media. This included heparin and chondroitin sulphate A, B and C (0-50 μg/ml).
# For Heparin binding activity we incubated 1 ml of recombinant proteins (20 μg/ml) in DMEM with 50 μl of PBS-washed Heparin-sepharose beads (Sigma) for 1 hour at 37° C. shaking at 100 rpm. Media pre- and post-incubation was compared by fluorometry. For Heparinase treatment, we plated NIH3t3 cells at 2×10^5/well (in 12-well plates) and were pre-incubated in serum-free media for 1 hour with Heparinase III (0-1 U/ml) or Heparin (0-50 μg/ml). Cells were then washed and transduced with mR or P21-mR-8R (20 μg/ml in serum-free media or media with different FCS concentrations) containing Heparinase III or Heparin for 12 hours. FCS was depleted of P21-binding material by affinity chromatography. This was achieved by incubating 50 ml FCS with 2 ml Glutathione-Sepharose resin (GE Healthcare) pre-absorbed with GST-P21 protein expressed in Escherichia coli.
# [3] = test system: NIH 3t3 fibroblast cells; test: Iron oxide nanoparticle uptake (Prussian blue, iron assay); type: cell-based
# Procedure: Confluent cells were split into 12 well plates at 200,000 cells/well and incubated for 24 hours at 37° C. After 24 hours 50 μg of Nanomag-D iron oxide nanoparticles (250 nm) and either 0, 0.01, 0.05, 0.1, 0.5, 2, 1, 5 and 10 μM of cell penetrating peptide were added to the cells with either 10% FCS DMEM or serum free DMEM media and left for 24 hours for iron nanoparticles to be internalised. After incubation cells were washed in PBS to remove excess nanoparticles then harvested for qualitative Prussian blue staining, quantitative colorimetric iron assay or fluorescence activated flow cytometry.
# Cells were labelled then fixed in 4% (w/v) PFA for 15-20 minutes at 4° C. A staining solution of 2.5% potassium ferrocyanide in 2.5% HCL was added to cells and incubated for an hour at room temperature. If nanoparticles were present a blue stain appeared which is proportional to the concentration of iron.
# Quantitative Colorimetric Iron Assay Cells were labelled, trypsinised and pelleted then all media removed. 40 μl of 37% HCL was added to the cells and heated at 70° C. until dissolved, then neutralised with 50 μl of NaOH. Those samples containing a high concentration of iron were diluted 1:10 then 40 μl of Quantichrom working reagent was added and the instructions in the Quantichrom iron assay followed.
molecule,measurement,setting,value
N=C(N)NC(=O)c1nc(Cl)c(N)nc1N [Amiloride],effect on functional delivery of HETD-tagged Cre,[1],dose-dependent reduction
C=C1[C@@H](C)[C@H]2[C@H](Cc3ccccc3)NC(=O)[C@]23[C@H](OC(C)=O)/C=C/[C@@](C)(O)C(=O)[C@@H](C)C/C=C/[C@H]3[C@@H]1O [Cytochalasin D],effect on functional delivery of HETD-tagged Cre,[1],dose-dependent reduction
[Na+].[O-][Cl+2]([O-])[O-] [Sodium Chlorate],prevention of HETD-mediated protein delivery,[2]; inhibitor of HS synthesis (FIG. 14),~7.6 fold
C[C@@H]1[C@H](O)[C@@H](C)/C=C/C=C/CC/C=C/C=C/C=C/C=C/C(O[C@H]2O[C@H](C)[C@@H](O)[C@H](N)[C@@H]2O)CC2O[C@](O)(CC(O)C(O)CCC(O)CC(O)CC(O)CC(=O)O[C@H]1C)CC(O)C2C(=O)O (stereo partly drawn) [nystatin],effect on functional delivery of HETD-tagged Cre,[1],dose-dependent inhibition
Chondroitin sulphate [CS-A],effect on cell-surface binding and transduction of HETD proteins,[2],little effect
Chondroitin sulphate [CS-B],effect on cell-surface binding and transduction of HETD proteins,[2],little effect
same,inhibition of PTD-only protein transduction,[2],2.4 fold
Chondroitin sulphate [CS-C],effect on cell-surface binding and transduction of HETD proteins,[2],little effect
same,inhibition of PTD-only protein transduction,[2],4.1 fold
Heparin,inhibition of PTD-only protein transduction,[2],8.1 fold
same,inhibition of transduction of HETD proteins,"[2]; free GAG in media, P21-mR-8R 20 μg/ml (FIG. 3)",99.8±2.1%
same,effect on P21 binding and nanoparticle uptake,[3]; added to media,inhibitor for the binding
Methyl-β-cyclodextrin [methyl-b-cyclodextrin],effect on functional delivery of HETD-tagged Cre,[1],dose-dependent inhibition
dextran,decrease in nanoparticle uptake,"[3]; increasing concentration added to media, 1 μM P218R",18%
B1,inhibition of GET/HETD-mediated transduction,"[2]; at 1 U/ml, 6 h protocol",97.2±3.4%
